{"source": "paper PMC8878468", "about": "“Image-Based Annotation of Chemogenomic Libraries for Phenotypic Screening” (Molecules, 2022)", "key": {"U2OS cells [1]": {"test_system": "U2OS cells", "assay": "Multiplex high-content protocol (nuclei gating, tubulin, mitochondrial mass, membrane permeability)", "assay_type": "cell-based, human", "conditions": "for viability at 1 µM: Homo sapiens, read-out: healthy nuclei; for viability at 1 µM / healthy nuclei (healthy cells) / membrane permeabilization effects: 24 h; for mitochondrial mass increase detected / marked for tubulin effects while crossing no other phenotypic threshold: threshold > 50%", "description": "Using the CQ1 high-content confocal microscope (Yokogawa), cellular shape and fluorescence was measured before and 12 h as well as 24 h after compound treatment. All compounds were diluted in DMSO to a concentration of 10 mM.\nThe rather large spacing distance was used to create a robust readout, compensating potential plate variations and enabling automated screening without the use of autofocus. The overlap of the fluorescence emission spectra of the dyes was neglectable for all but the MitoTracker Red and Annexin V Alexa Fluor 680 (Supplementary Figure S9).\nAll images were analyzed using the CellPathfinder software (Yokogawa). Segmentation of cells was performed as described earlier. First, the cells are classified in Hoechst High Intensity Objects or Normal Intensity Objects (Supplementary Table S7). All normal gated cells are further classified in healthy, fragmented or pyknosed nuclei (Supplementary Table S7). The pyknosed cells are gated in mitotic or apoptotic cells using seven features for the cell body and five features for the cell nuclei according to their Annexin V staining intensity (Supplementary Table S7). All cells that were classified as including a healthy nucleus are further gated into three phenotypic classes. […] Growth rate was calculated against non-treated cells and cells treated with DMSO 0.1% [61]."}, "HCT116-FUCCI cells [2]": {"test_system": "HCT116-FUCCI cells", "set-up": "method as in per compound as in column reference of Table S3", "conditions": "literature annotation in Table S3; ref per compound as in Table S3; cited from earlier work"}, "U2OS cells [3]": {"test_system": "U2OS cells", "assay": "cells", "conditions": "Homo sapiens"}, "HCT116-FUCCI cells [4]": {"test_system": "HCT116-FUCCI cells", "assay": "FUCCI cell cycle assay with nuclear gating", "assay_type": "cell-based, human", "conditions": "10 µM, up to 70 h", "description": "For generation of a stable cell line, including the florescent ubiquitination-base cell cycle indicator FUCCI, the plasmid-based transposon system Sleeping Beauty was used. Vector (pSBbi_Fucci) and the Transposase SB100X have been described previously. […] Two days after transfection, cells were selected over 10 days using puromycin (1 µg/mL) and cultivated afterwards for two more weeks in McCoys 5A plus L-Glutamine (Gibco) supplemented by 10% FBS (Gibco) and Penicillin/Streptomycin (Gibco).\nFluorescence and cellular shape were measured before and after compound treatment for 72 h every 12 h using the CQ1 high-content confocal microscope (Yokogawa). […]\nImage analysis was performed using the CellPathfinder software (Yokogawa). Segmentation of cells was performed as described earlier. First, the cells are classified in Hoechst High Intensity Objects or Normal Intensity Objects (Supplementary Table S7). All normal gated cells are further classified in healthy, fragmented or pyknosed nuclei (Supplementary Table S7). […] Total cell count was normalized against total cell count of cells treated with 0.1% DMSO."}}, "note": "Like-named read-outs stand apart in the source and are kept apart here.", "data": [{"smiles": "C[C@@]1(C(=O)Nc2ccc(F)nc2)CCCN1c1nc(Nc2cc(C3CC3)n[nH]2)c2cccn2n1", "note": "[BMS-754807]", "values": [{"measurement": "viability at 1 µM", "setting": "U2OS cells [1]; U2OS, 1 µM", "result": "≤ 40", "unit": "%"}]}, {"smiles": "CN[C@@H]1C[C@H]2O[C@@](C)([C@@H]1OC)n1c3ccccc3c3c4c(c5c6ccccc6n2c5c31)C(=O)NC4", "note": "[staurosporine]", "values": [{"measurement": "mitochondrial mass, first analysis gating all cells independently of viability", "setting": "U2OS cells [1]; 10 µM", "result": "increased mitochondrial mass"}, {"measurement": "tubulin effect, first analysis gating all cells independently of viability", "setting": "U2OS cells [1]; 10 µM", "result": "tubulin effects"}, {"measurement": "healthy nuclei (healthy cells)", "setting": "U2OS cells [1]; U2OS, 10 µM", "result": "less than 50%"}, {"measurement": "known cell cycle effect", "setting": "HCT116-FUCCI cells [2]", "result": "dose-dependent cell"}]}, {"smiles": "O=C(CCCCCCNC(=O)c1cnc(N(c2ccccc2)c2ccccc2)nc1)NO", "note": "[ricolinostat]", "values": [{"measurement": "IC50", "setting": "U2OS cells [3]; 26 h, read-out: IC 50 26 h", "result": 13.5, "unit": "µM"}, {"measurement": "IC50", "setting": "U2OS cells [3]; 42 h, read-out: IC 50 42 h", "result": 13.4, "unit": "µM"}, {"measurement": "IC50", "setting": "U2OS cells [3]; 56 h, read-out: IC 50 56 h", "result": 13.7, "unit": "µM"}]}, {"smiles": "Cc1[nH]c2ccccc2c1CCNCc1ccc(/C=C/C(=O)NO)cc1", "note": "[Panobinostat]", "values": [{"measurement": "known cell cycle effect", "setting": "HCT116-FUCCI cells [2]", "result": "G 1/S cell cy cle arrest"}]}, {"smiles": "CCn1cc(-c2ccnc3[nH]c(-c4cccc(CN(C)C)c4)cc23)c(-c2ccc(NC(=O)N(C)C)cc2)n1", "note": "[GSK1070916]", "values": [{"measurement": "mitochondrial mass increase detected", "setting": "U2OS cells [1]; U2OS, 1 µM", "result": "mitochondrial mass increase"}]}, {"smiles": "COc1cc(Nc2ccnc3ccc(Br)cc23)cc(OC)c1OC", "note": "[SGC-GAK-1]", "values": [{"measurement": "mitochondrial mass increase detected", "setting": "U2OS cells [1]; U2OS, 1 µM", "result": "mitochondrial mass increase"}]}, {"smiles": "Cc1cc(C)c(-n2ccn3nc(-c4cccnc4)cc23)cc1NC(=O)c1cc(C#N)cc(S(F)(F)(F)(F)F)c1", "note": "[BAY-826]", "values": [{"measurement": "marked for tubulin effects while crossing no other phenotypic threshold", "setting": "U2OS cells [1]; U2OS, 1 µM", "result": "marked to have tubulin effects"}]}, {"smiles": "C=CCn1c(=O)c2cnc(Nc3ccc(N4CCN(C)CC4)cc3)nc2n1-c1cccc(C(C)(C)O)n1", "note": "[adavosertib]", "values": [{"measurement": "viability at 1 µM", "setting": "U2OS cells [1]; U2OS, 1 µM", "result": "≤ 40", "unit": "%"}]}, {"smiles": "COc1cc2ncnc(Nc3ccc(F)c(Cl)c3)c2cc1NC(=O)/C=C/CN1CCCCC1", "note": "[PF-299804]", "values": [{"measurement": "membrane permeabilization effects", "setting": "U2OS cells [1]; U2OS, 1 µM", "result": "more than 65%"}, {"measurement": "marked for tubulin effects while crossing no other phenotypic threshold", "setting": "U2OS cells [1]; U2OS, 1 µM", "result": "marked to have tubulin effects"}]}, {"smiles": "O=C1c2c(O)ccc(O)c2C(=O)c2c(NCCNCCO)ccc(NCCNCCO)c21", "note": "[mitoxantrone]", "values": [{"measurement": "change of FUCCI nuclei population in comparison to DMSO", "setting": "HCT116-FUCCI cells [4]", "result": "increase in green nuclei"}, {"measurement": "known cell cycle effect", "setting": "HCT116-FUCCI cells [2]", "result": "delay in cell cycle"}]}, {"smiles": "C[C@@H]1CC[C@@]2(OC1)O[C@H]1[C@@H](O)[C@H]3[C@@H]4CC[C@H]5C[C@@H](O[C@@H]6O[C@H](CO)[C@H](O[C@@H]7O[C@H](CO)[C@@H](O)[C@H](O[C@@H]8OC[C@@H](O)[C@H](O)[C@H]8O)[C@H]7O[C@@H]7O[C@H](CO)[C@H](O)[C@H](O[C@@H]8O[C@H](CO)[C@@H](O)[C@H](O)[C@H]8O)[C@H]7O)[C@H](O)[C@H]6O)[C@H](O)C[C@]5(C)[C@H]4CC[C@]3(C)[C@H]1[C@@H]2C", "note": "[digitonin]", "values": [{"measurement": "healthy nuclei (healthy cells)", "setting": "U2OS cells [1]; U2OS, 10 µM", "result": "more than 50%"}, {"measurement": "IC50", "setting": "U2OS cells [3]; 14 h, read-out: IC 50 14 h", "result": 10.6, "unit": "µM"}, {"measurement": "IC50", "setting": "U2OS cells [3]; 26 h, read-out: IC 50 26 h", "result": 11.6, "unit": "µM"}, {"measurement": "IC50", "setting": "U2OS cells [3]; 42 h, read-out: IC 50 42 h", "result": 11.5, "unit": "µM"}, {"measurement": "IC50", "setting": "U2OS cells [3]; 56 h, read-out: IC 50 56 h", "result": 15.1, "unit": "µM"}]}, {"smiles": "C=CC(=O)Nc1cccc(Oc2nc(Nc3ccc(N4CCN(C)CC4)cc3OC)ncc2Cl)c1", "note": "[WZ-4002]", "values": [{"measurement": "effect on tubulin", "setting": "U2OS cells [1]; 1 µM, 12 h", "result": "effect on tubulin"}, {"measurement": "membrane permeabilization effects", "setting": "U2OS cells [1]; U2OS, 1 µM", "result": "membrane permeabilization"}]}, {"smiles": "CC(=O)Nc1cccc(-n2c(=O)n(C3CC3)c(=O)c3c(Nc4ccc(I)cc4F)n(C)c(=O)c(C)c32)c1", "note": "[trametinib]", "values": [{"measurement": "change of FUCCI nuclei population in comparison to DMSO", "setting": "HCT116-FUCCI cells [4]", "result": "increase in red nuclei"}]}, {"smiles": "CN1CCN(Cc2ccc(Nc3ncc(Cl)c(Nc4ccccc4S(=O)(=O)N(C)C)n3)cc2)CC1", "note": "[TP0903]", "values": [{"measurement": "viability at 1 µM", "setting": "U2OS cells [1]; U2OS, 1 µM", "result": "≤ 40", "unit": "%"}, {"measurement": "decrease of healthy nuclei count", "setting": "U2OS cells [1]; U2OS, 1 µM", "result": "more than 60%"}]}, {"smiles": "CN([C@@H](Cc1ccc(OS(=O)(=O)c2cccc3cnccc23)cc1)C(=O)N1CCN(c2ccccc2)CC1)S(=O)(=O)c1cccc2cnccc12", "note": "[KN-62]", "values": [{"measurement": "tubulin effects", "setting": "U2OS cells [1]; U2OS, 1 µM", "result": "> 90", "unit": "%"}]}, {"smiles": "CCNc1cc(NC2CCC(O)CC2)nc(Nc2ccc3c(ccn3Cc3ccccc3)c2)n1", "note": "(stereo not shown) [CINK4]", "values": [{"measurement": "marked for tubulin effects while crossing no other phenotypic threshold", "setting": "U2OS cells [1]; U2OS, 1 µM", "result": "marked to have tubulin effects"}]}, {"smiles": "CCOc1cc(C(=O)N2CCC(N3CCN(C)CC3)CC2)ccc1Nc1ncc2c(n1)N(C1CCCC1)c1ccccc1C(=O)N2C", "note": "[XMD17-109]", "values": [{"measurement": "mitochondrial mass increase detected", "setting": "U2OS cells [1]; U2OS, 1 µM", "result": "mitochondrial mass increase"}]}, {"smiles": "CNCc1ccc(-c2cc(-c3nc(-c4ccc(S(=O)(=O)C(C)C)cc4)cnc3N)on2)cc1", "note": "[berzosertib]", "values": [{"measurement": "Hoechst High Intensity Objects (Hoechst intensity compared to normal nuclei)", "setting": "U2OS cells [1]; U2OS, 1 µM", "result": "more than 50%"}, {"measurement": "IC50", "setting": "U2OS cells [3]; 14 h, read-out: IC 50 14 h", "result": 0.0627, "unit": "µM"}, {"measurement": "IC50", "setting": "U2OS cells [3]; 26 h, read-out: IC 50 26 h", "result": 0.0641, "unit": "µM"}, {"measurement": "IC50", "setting": "U2OS cells [3]; 42 h, read-out: IC 50 42 h", "result": 0.0587, "unit": "µM"}, {"measurement": "IC50", "setting": "U2OS cells [3]; 56 h, read-out: IC 50 56 h", "result": 0.0565, "unit": "µM"}]}, {"smiles": "CCOC(=O)Nc1cc(-c2ccc(C)c(NS(C)(=O)=O)c2)nn2c(C)nnc12", "note": "[Bromosporine]", "values": [{"measurement": "marked for tubulin effects while crossing no other phenotypic threshold", "setting": "U2OS cells [1]; U2OS, 1 µM", "result": "marked to have tubulin effects"}, {"measurement": "known cell cycle effect", "setting": "HCT116-FUCCI cells [2]", "result": "increase of cells in G1"}]}]}
